In PubChem BioAssay (NCI):
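Exposure lasted 48 hours, with cells grown in 96-well plates and compounds tested at five concentrations. TGI marks complete inhibition of growth.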

Legend:
Assay in all cases: growth of human tumour cells (NCI), 48 h
SK-OV-3 ovarian = system: SK-OV-3 ovarian
OVCAR-4 ovarian = system: OVCAR-4 ovarian
COLO 205 colon = system: COLO 205 colon
SF-268 CNS = system: SF-268 CNS
SK-MEL-5 melanoma = system: SK-MEL-5 melanoma
MDA-N = system: MDA-N
HCT-116 colon = system: HCT-116 colon
RPMI-8226 leukemia = system: RPMI-8226 leukemia
SN12C renal = system: SN12C renal
BT-549 breast = system: BT-549 breast
MCF7 breast = system: MCF7 breast
SK-MEL-2 melanoma = system: SK-MEL-2 melanoma
NCI-H226 lung = system: NCI-H226 lung
RXF 393 renal = system: RXF 393 renal
U251 CNS = system: U251 CNS
T-47D breast = system: T-47D breast
MDA-MB-231 breast = system: MDA-MB-231 breast
SF-295 CNS = system: SF-295 CNS
OVCAR-5 ovarian = system: OVCAR-5 ovarian
EKVX NSCLC = system: EKVX NSCLC
HS 578T breast = system: HS 578T breast
HCT-15 colon = system: HCT-15 colon
HOP-92 NSCLC = system: HOP-92 NSCLC
NCI-H23 lung = system: NCI-H23 lung
ACHN renal = system: ACHN renal
NCI-H522 lung = system: NCI-H522 lung
K-562 leukemia = system: K-562 leukemia
UACC-257 melanoma = system: UACC-257 melanoma
M14 melanoma = system: M14 melanoma
IGROV1 ovarian = system: IGROV1 ovarian
HOP-62 NSCLC = system: HOP-62 NSCLC
MALME-3M melanoma = system: MALME-3M melanoma
MOLT-4 leukemia = system: MOLT-4 leukemia
KM12 colon = system: KM12 colon
786-0 renal = system: 786-0 renal
SR leukemia = system: SR leukemia
A549 NSCLC = system: A549 NSCLC
CCRF-CEM leukemia = system: CCRF-CEM leukemia
SK-MEL-28 melanoma = system: SK-MEL-28 melanoma
PC-3 prostate = system: PC-3 prostate
SNB-19 CNS = system: SNB-19 CNS
HT29 colon = system: HT29 colon
NCI/ADR-RES ovarian = system: NCI/ADR-RES ovarian
MDA-MB-435 = system: MDA-MB-435
UACC-62 melanoma = system: UACC-62 melanoma
HCC-2998 colon = system: HCC-2998 colon
OVCAR-3 ovarian = system: OVCAR-3 ovarian
DU-145 prostate = system: DU-145 prostate
OVCAR-8 ovarian = system: OVCAR-8 ovarian
UO-31 renal = system: UO-31 renal
HL-60(TB) leukemia = system: HL-60(TB) leukemia
TK-10 renal = system: TK-10 renal
SNB-75 CNS = system: SNB-75 CNS
SW-620 colon = system: SW-620 colon
LOX IMVI melanoma = system: LOX IMVI melanoma
SF-539 CNS = system: SF-539 CNS
CAKI-1 renal = system: CAKI-1 renal

Measured: TGI

Cc1cc2ncn(C3CCCO3)c2cc1C (configuration not stated)
> 100 µM: all assays above
